Test results from US7592326B2, “Method for stimulating the immune, inflammatory or neuroprotective response” (priority 2004, dated 2009).

Legend:
[1] = tested on: immature DCs (iDC) and mature DCs (mDC); assay: Cytokine production by dendritic cells (sandwich ELISA of supernatants); format: cell-based, human; settings: 24 h
Procedure: Analysis of supernatant cytokine content was performed both on treated (c-di-GMP) or untreated saline control (NaCl) immature DCs (iDC) and mature DCs (mDC). Culture supernatants were collected after 24 h treatment and IL-1β, IL-6, IL-10, IL-12, and TNF- α contents were measured using a sandwich ELISA according to the manufacturer's instructions.

[2] = tested on: monocytes and granulocytes; assay: Monocyte and granulocyte recruitment after intraperitoneal injection (FACS of peritoneal fluid); format: in vivo, C57BL/6 mice
Procedure: C57BL/6 mice were injected with a volume of 500 ul containing 200 nmol c-di-GMP. […] Fluid was incubated in PBS BSA azide +24G2 (anti Fc) for 15 min at 4° C., washed in PBS, washed in PBS then stained and analyzed by FACs analysis (PBS BSA azide, 30 min 4° C.). Cells were stained with directly coupled fluorescent mAbs combinations in […] FACS buffer and further collected on a FACScalibur cytofluorometer (Becton Dickinson, BD). The following mAbs were purchased: fluorescein (FITC)-coupled M1/70 (anti-CD11b, BD Pharmingen), phycoerythrin (PE)-coupled 1A8 (anti-LY-6G, BD Pharmingen), 7/4 (Caltag), allophycocyanin (APC)-coupled F4/80 (Caltag). Cells were gated according to size and scatter to eliminate dead cells and debris from analysis.

NF-κB = assay: Western blot signaling in human DCs: NF-κB (I-κBα degradation); format: cell-based; settings: up to 30 min
Procedure: (§1) Human PBMC were isolated by Ficoll density gradient centrifugation from leukopacks supplied by the Department of Transfusion Medicine (Clinical Center, National Institute of Health, Bethesda, Md.). Monocytes were purified (>95%) from human PBMC with MACS CD14 monocyte isolation kit (Miltenyi Biotech Inc., Auburn, Calif.) according to the manufacturer's instruction. DCs were generated as described previously (Yang et al., 2001). In brief, DCs were generated by incubating purified monocytes at 2×10^5/ml in RPMI 1640 containing 10% FBS, 2 mM glutamine, 25 mM HEPES, 100 U/ml penicillin, 100 ug/ml streptomycin, 50 ng/ml recombinant human GM-CSF (PeproTech, Rocky Hill, N.J.), and 50 ng/ml recombinant human IL-4 (PeproTech) at 37° C. in a CO2 (5%) incubator for 7 days. On day 3 and 5 of the incubation, half of the culture medium was replaced with pre-warmed (37° C.) fresh GM-CSF- and IL-4-containing medium. On day 7, DCs were collected, washed three times with PBS, and serum-starved for 8 hours by incubating in serum-free RPMI-1640 containing GM-CSF and IL-4 (2×10^5/ml) at 37° C. in a CO2 (5%) incubator. Subsequently, DCs (2×10^6/sample) were incubated at 37° C. in the absence or presence of c-di-GMP or GMP (Sigma, St. Louis, Mo.) at concentrations specified for 5 or 30 minutes. […]

ERK = assay: Western blot signaling in human DCs: ERK; format: cell-based; settings: data not shown
Procedure: as §1

[3] = tested on: C. albicans strain SC5314; assay: Systemic C. albicans infection in mice (proposed); format: in vivo, Candida albicans; settings: A/J and C57BL/6J mice, 3×10^5 blastospores i.v.
Procedure: To show the efficacy of c-di-GMP in inhibiting C. albicans infection, 8- to 12-week-old A/J and C57BL/6J mice are infected with C. albicans strain SC5314. The blastospores are washed twice in phosphate-buffered saline (PBS) and resuspended in PBS at the required density. For experimental infections, A/J and C57BL/6J mice are inoculated via the tail vein with 200 μl of a suspension containing 3×10^5 C. albicans blastospores in PBS. One group of mice will be pretreated with c-di-GMP (intranasally, i.p., i.m., s.q.). Mice are to be closely monitored for clinical signs of disease, such as lethargy, loss of appetite, hunched back, and ruffled fur.
The levels of TNF-α and IL-6 in tissue extracts are determined using “two-site sandwich” assays with commercially available enzyme-linked immunosorbent assay (ELISA) kits (BD Biosciences). Tissue extracts are prepared by homogenization in lysis buffer (20 mM Tris [pH 7.5], 0.3 M NaCl, 2% sodium deoxycholate, 2% Triton X-100, protease inhibitor cocktail [Roche Diagnostics]). Additional determinations of the levels of 32 cytokines and chemokines are carried out by using cardiac tissue extracts and RayBio mouse cytokine array II membranes (RayBiotech Inc., Norcross, Ga.). […] All values are normalized to the protein content and determined using the Bradford reagent.

Murine splenic DCs = assay: Activation of murine splenic DCs; settings: 200 uM, 24 h

## Nc1nc(=O)c2ncn([C@@H]3OC4COP(=O)(O)O[C@H]5[C@@H](O)[C@H](n6cnc7c(=O)nc(N)[nH]c76)O[C@@H]5COP(=O)(O)OC4C3O)c2[nH]1 (stereo partly shown) [c-di-GMP, Bis(3′→5′)-cyclic diguanylic acid]
[1]; DCs
  IL-10 expression: no major effect
[1]; iDCs, 5 μM, FIG. 3A
  production of TNF-α: dramatic increase
[1]; immature DCs
  IL-12 secretion: undetectable
[1]; mDCs (LPS-treated), 50 μM
  IL-12 production: dramatic increase
[1]; mDCs (LPS-treated), 100 μM, FIG. 3B
  IL-6 production: increase
[1]; mDCs (LPS-treated), FIG. 3B
  IL-1β production: major increase
[2]; 200 nmol i.p., peritoneal lavage at 18 hours
  recruitment of F4/80^high LY-6G^med (monocytes) and F4/80^med LY-6G^high (granulocytes): induced the recruitment
[2]; under the conditions tested
  macrophage and granulocyte recruitment in vivo relative to comparators: to a greater extent than CpG ODN and LPS
NF-κB
  activation of NF-κB (I-κBα degradation): did not activate
ERK
  activation of ERK: did not activate
[3]
  clinical outcome: less mortality
Murine splenic DCs; FIG. 9A
  surface expression of co-stimulatory molecules CD80 and CD86: increase
Murine splenic DCs; FIGS. 9B and 9C
  TNF and IL-8 protein in supernatant: increase
